Patent US9422283B2, “Salts and polymorphs of a substituted imidazopyridinyl-aminopyridine compound” (ArQule, Inc., priority 2014, dated 2016)
Entries after “also recorded” stand apart in the source; their conditions may differ. Counter-ions that a name gives are not always drawn.

Columns and labels:
Assay type in all cases: physicochemical
[1] = Thermodynamic aqueous solubility
Protocol: Aqueous solubility was determined by suspending sufficient compound in water to give a maximum final concentration of ≧10 mg/ml of the parent free-form of the compound. The suspension was equilibrated at 25° C. for 24 hours then the pH was measured. The suspension was then filtered through a glass fiber C filter. The filtrate was then diluted by an appropriate factor e.g., 101. Quantitation was by HPLC with reference to a standard solution of approximately 0.25 mg/ml in DMSO. Different volumes of the standard, diluted and undiluted sample solutions were injected. The solubility was calculated using the peak areas determined by integration of the peak found at the same retention time as the principal peak in the standard injection.
Analysis was performed on an Agilent HP1100 series system equipped with a diode array detector and using ChemStation software vB.02.01-SR1.

[2] = Gravimetric Vapor Sorption (GVS)
Protocol: Sorption isotherms were obtained using a SMS DVS Intrinsic moisture sorption analyzer, controlled by DVS Intrinsic Control software v1.0.0.30. The sample temperature was maintained at 25° C. by the instrument controls. The humidity was controlled by mixing streams of dry and wet nitrogen, with a total flow rate of 200 ml/min. The relative humidity was measured by a calibrated Rotronic probe (dynamic range of 1.0-100% RH), located near the sample. The weight change, (mass relaxation) of the sample as a function of % RH was constantly monitored by the microbalance (accuracy ±0.005 mg).
Typically 5-20 mg of sample was placed in a tared mesh stainless steel basket under ambient conditions. The sample was loaded and unloaded at 40% RH and 25° C. (typical room conditions). A moisture sorption isotherm was performed as outlined below (4 scans giving 2 complete cycles). The standard isotherm was performed at 25° C. at 10% RH intervals over a 0-90% RH range. Data analysis was undertaken in Microsoft Excel using DVS Analysis Suite v6.0.0.7.
The sample was recovered after completion of the isotherm and re-analysed by XRPD. 7.2. Dynamic Vapour Sorption (DVS)

[3] = Storage stability of free base and salts (XRPD, IC, 1H NMR pre- and post-storage)
[4] = Aqueous solubility studies of bis-mesylate forms (slurry in deionised water, HPLC, XRPD); settings: about 24 hours, ambient temperature
Protocol: Purity and concentration analyses were carried out using the following method:
• Pan Number 186003045 Column Temperature: 25° C. Autosampler Temperature: 5° C. Detection: 226 nm Mobile Phase A: 95:5:0.1% Water:Methanol:TFA Mobile Phase B: 95:5:0.1% Methanol:Water:TFA Gradient: See table below for conditions Flow Rate: 1.0 mL/minute Injection Volume: 10 μl Analysis Time: 36 minutes Re-equilibration Time: 4 minutes Data Collection time: 36 minutes Needle Wash: 100% Methanol
Slurries of Form A, Form B, Form C, Form D, Form E and Form I were created in deionised water and shaken for about 24 hours at ambient temperature (about 22° C.). The resulting solutions were then analyzed by HPLC and the aqueous solubility was determined. The remaining solids were analyzed by XRPD to determine if any form changes had occurred during slurrying.

[5] = Dynamic Vapour Sorption (DVS)
Protocol: Approximately 10 mg of sample was placed into a mesh vapour sorption balance pan and loaded into a DVS-1 dynamic vapour sorption balance by Surface Measurement Systems. The sample was subjected to a ramping profile of 0-90%, 90-0% relative humidity (RH) at 10% increments for anhydrous samples and 30-90%, 90-0%, 0-90%, 90-0% for hydrated samples, maintaining the sample at each step until a stable weight had been achieved (99.5% step completion). The weight changes during the sorption/desorption cycles were plotted, allowing the hygroscopic nature of the sample to be determined.

[6] = Stability testing of bis-mesylate forms for 1 week (XRPD, HPLC purity)
Protocol: Form A, Form B, Form C, Form D, Form E and Form I were exposed to environments of 40° C./75% RH, ambient light (about 22° C.) and elevated temperature (80° C.) for 1 week to determine the stability. The resulting solids were analyzed by XRPD to establish if any form changes had occurred and by HPLC to determine purity.

Nc1ncccc1-c1nc2ccc(-c3ccccc3)nc2n1-c1ccc(C2(N)CCC2)cc1 [Compound A free base, 3-(3-(4-(1-aminocyclobutyl)phenyl)-5-phenyl-3H-imidazo[4,5-b]pyridin-2-yl)pyridin-2-amine]
solubility in water (qualitative) [1]: insoluble in water

Nc1ncccc1-c1nc2ccc(-c3ccccc3)nc2n1-c1ccc(C2(N)CCC2)cc1 [Form 1, 3-(3-(4-(1-aminocyclobutyl)phenyl)-5-phenyl-3H-imidazo[4,5-b]pyridin-2-yl)pyridin-2-amine]
water uptake (GVS) ([2]; 0-90% RH): < 0.8 %, w/w
water absorption upon storage ([2]; FIG. 5 GVS isotherm): Minimal water absorption
stability under storage ([3]; 25° C. and 0-96% RH, XRPD): stable
polymorphic form change on storage ([3]; 40° C. and 75% RH, one week, XRPD): transformed to Form 2

Nc1ncccc1-c1nc2ccc(-c3ccccc3)nc2n1-c1ccc(C2(N)CCC2)cc1 [Compound A mesylate salt, 3-(3-(4-(1-aminocyclobutyl)phenyl)-5-phenyl-3H-imidazo[4,5-b]pyridin-2-yl)pyridin-2-amine]
solubility at 5 min ([1]; water, 25 °C, thermodynamic from solid, in 5 min, pH 2.1): > 50000 µg/mL
change in XRPD after GVS [2]: No change in XRPD after GVS
change after storage ([3]; 40° C. and 75% RH, 7 days, XRPD and 1H NMR): No change in XRPD or ^1H NMR

Nc1ncccc1-c1nc2ccc(-c3ccccc3)nc2n1-c1ccc(C2(N)CCC2)cc1 [Compound A tris-HCl salt, 3-(3-(4-(1-aminocyclobutyl)phenyl)-5-phenyl-3H-imidazo[4,5-b]pyridin-2-yl)pyridin-2-amine]
solubility in water (qualitative) [1]: highly soluble in water
change of salt under storage ([3]; stability study under storage, XRPD): partially transformed to bis-HCl salt and/or mono-HCl salt

Nc1ncccc1-c1nc2ccc(-c3ccccc3)nc2n1-c1ccc(C2(N)CCC2)cc1 [Form C, 3-(3-(4-(1-aminocyclobutyl)phenyl)-5-phenyl-3H-imidazo[4,5-b]pyridin-2-yl)pyridin-2-amine]
polymorphic form after slurrying in deionised water (XRPD) [4]: converted to Form E
DVS (summary Table 21) [5]: Non-hygroscopic
hygroscopicity (DVS) [5]: non-hygroscopic
polymorphic form after DVS analysis (XRPD) [5]: consistent with Form C; also recorded: Form C post
DVS total water uptake ([5]; up to 90% RH): about 0.54%
HPLC purity after stability test ([6]; 40° C./75% RH): about 99.9%
polymorphic form after stability test (XRPD) ([6]; 40° C./75% RH): No change
HPLC purity after stability test ([6]; 80° C.): about 99.9%
polymorphic form after stability test (XRPD) ([6]; 80° C.): No change
polymorphic form after stability test (XRPD) ([6]; ambient light (about 22° C.)): No change
HPLC purity after stability test ([6]; ambient temperature): about 99.9%

Nc1ncccc1-c1nc2ccc(-c3ccccc3)nc2n1-c1ccc(C2(N)CCC2)cc1 [Compound A HCl salt, 3-(3-(4-(1-aminocyclobutyl)phenyl)-5-phenyl-3H-imidazo[4,5-b]pyridin-2-yl)pyridin-2-amine]
solubility at 24 h ([1]; water, 25 °C, thermodynamic from solid, pH 1.2, max conc. 50 mg/ml): 8300 µg/mL
GVS water uptake ([2]; partial run, from 40-90% RH): partial run: ~18 wt % water uptake
HCl content by IC after storage ([3]; 40° C. and 75% RH, 7 days, 2.2 equi. HCl before storage): IC converted to 1.6 equi. HCl

Nc1ncccc1-c1nc2ccc(-c3ccccc3)nc2n1-c1ccc(C2(N)CCC2)cc1 [Form I, 3-(3-(4-(1-aminocyclobutyl)phenyl)-5-phenyl-3H-imidazo[4,5-b]pyridin-2-yl)pyridin-2-amine]
polymorphic form after slurrying in deionised water (XRPD) [4]: converted to Form E
DVS (summary Table 21) [5]: Hydration occurs
DVS desorption behaviour / hysteresis [5]: gradual loss of water/dehydration below 50% RH
polymorphic form after DVS analysis (XRPD) [5]: Form I post
DVS water uptake ([5]; sorption cycle, between 40% and 50% RH): about 10%
HPLC purity after stability test ([6]; 40° C./75% RH): about 99.8%
polymorphic form after stability test (XRPD) ([6]; 40° C./75% RH): conversion to Form J
HPLC purity after stability test ([6]; 80° C.): about 99.9%
polymorphic form after stability test (XRPD) ([6]; 80° C.): remained unchanged
polymorphic form after stability test (XRPD) ([6]; ambient light (about 22° C.)): remained unchanged
HPLC purity after stability test ([6]; ambient temperature): about 99.6%
